Where a name gives a salt, the structure may show the parent alone. Read-outs that look alike come from different tables or passages of the source.
Columns and labels:
KMS.12.BM cells = assay: KMS.12.BM Cell Viability Assay (Example B1); format: cell-based, human; settings: Homo sapiens, 72 h, 3 days, Cell Titer-GLO, read-out: KMS cellular IC50
Outline: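 KMS.12.BM human myeloma cells, 5000 cells/well in RPMI with 10% FBS, exposed to a compound concentration range for 3 days. Viable cells measured by ATP-based Cell Titer-GLO luminescence after 10 min at room temperature.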

C-myc in KMS.12.BM cells = assay: KMS.12.BM C-Myc ELISA Assay (Example C1); format: cell-based; settings: Homo sapiens, 2 h
Protocol: KMS.12.BM C-Myc ELISA Assay
KMS.12.BM cell line (human myeloma) was purchased from JCRB (Osaka, Japan) and maintained in RPMI with 10% FBS culture medium. To measure the C-myc inhibitory activity of the compounds, the KMS.12.BM cells are plated in the RPMI culture medium at 75000 cells/well/per 200 μL into a 96-well flat bottom polystyrene tissue culture plate (Corning through VWR, NJ), in the presence or absence of a concentration range of test compounds. After 2 h, cells are pelleted and lysed with Cell Extraction Buffer (BioSource, Carlsbad, Calif.) in the presence of protease inhibitors (Life Technologies, Grand Island, N.Y. and Sigma, St Louis, Mo.). Clarified lyses are tested in a C-myc commercial ELISA (Life Technologies, Grand Island, N.Y.).

| IC50 (C-myc in KMS.12.BM cells) | Compound | IC50 (KMS.12.BM cells) | IC50 (KMS.12.BM cells; KMS-12-BM) |
| --- | --- | --- | --- |
| < 1000 nM | Cc1noc(C)c1-c1ccc2[nH]c(=O)n3c2c1OCC3c1cccnc1C(N)=O (centres unmarked) [Example 127, 3-[7-(3,5-Dimethylisoxazol-4-yl)-2-oxo-1,2,4,5-tetrahydroimidazo[1,5,4-de][1,4]benzoxazin-4-yl]pyridine-2-carboxamide trifluoroacetate] | < 1000 nM | – |
| < 1000 nM | Cc1noc(C)c1-c1ccc2c3c1OCC(c1ccccc1)n3c(=O)n2C (centres unmarked) [Example 2, 7-(3,5-Dimethylisoxazol-4-yl)-1-methyl-4-phenyl-4,5-dihydroimidazo[1,5,4-de][1,4]benzoxazin-2(1H)-one] | < 1000 nM | – |
| 1000 to 10000 nM | Cc1noc(C)c1-c1cc(CNC(=O)Cc2ccccc2)c2[nH]c(=O)n3c2c1OC[C@@H]3c1ccccn1 [Example 139, N-{[(4S)-7-(3,5-Dimethylisoxazol-4-yl)-2-oxo-4-pyridin-2-yl-1,2,4,5-tetrahydroimidazo[1,5,4-de][1,4]benzoxazin-9-yl]methyl}-2-phenylacetamide] | < 1000 nM | – |
| < 1000 nM | CNc1nc2ccc(-c3c(C)noc3C)c3c2n1C(c1ccccc1)CO3 (centres unmarked) [Example 26, 7-(3,5-Dimethylisoxazol-4-yl)-N-methyl-4-phenyl-4,5-dihydroimidazo[1,5,4-de][1,4]benzoxazin-2-amine] | < 1000 nM | – |
| < 1000 nM | COCC(=O)NCc1cc(-c2c(C)noc2C)c2c3c1[nH]c(=O)n3[C@@H](c1ccccn1)CO2 [Example 140, N-{[(4S)-7-(3,5-Dimethylisoxazol-4-yl)-2-oxo-4-pyridin-2-yl-1,2,4,5-tetrahydroimidazo[1,5,4-de][1,4]benzoxazin-9-yl]methyl}-2-methoxyacetamide] | < 1000 nM | – |
| < 1000 nM | Cc1noc(C)c1-c1ccc2[nH]c(=O)n3c2c1OCC3c1cccnc1C(=O)NC1CC1 (single isomer, unassigned) [Example 134, N-Cyclopropyl-3-[7-(3,5-dimethylisoxazol-4-yl)-2-oxo-1,2,4,5-tetrahydroimidazo[1,5,4-de][1,4]benzoxazin-4-yl]pyridine-2-carboxamide] | < 1000 nM | – |
| < 1000 nM | Cc1noc(C)c1-c1cc(CNS(C)(=O)=O)c2[nH]c(=O)n3c2c1OC[C@@H]3c1ccccn1 [Example 141, N-{[(4S)-7-(3,5-Dimethylisoxazol-4-yl)-2-oxo-4-pyridin-2-yl-1,2,4,5-tetrahydroimidazo[1,5,4-de][1,4]benzoxazin-9-yl]methyl}methanesulfonamide] | < 1000 nM | – |
| < 1000 nM | CNC(=O)c1ncccc1C1COc2c(-c3c(C)noc3C)ccc3[nH]c(=O)n1c23 (centres unmarked) [Example 128, 3-[7-(3,5-Dimethylisoxazol-4-yl)-2-oxo-1,2,4,5-tetrahydroimidazo[1,5,4-de][1,4]benzoxazin-4-yl]-N-methylpyridine-2-carboxamide] | < 1000 nM | – |
| < 1000 nM | Cc1noc(C)c1-c1ccc2nc(NCCO)n3c2c1OCC3c1ccccc1 (centres unmarked) [Example 29, 2-{[7-(3,5-Dimethylisoxazol-4-yl)-4-phenyl-4,5-dihydroimidazo[1,5,4-de][1,4]benzoxazin-2-yl]amino}ethanol] | < 1000 nM | – |
| < 1000 nM | CC(=O)N1CCC(c2nc3ccc(-c4c(C)noc4C)c4c3n2[C@@H](c2ccccn2)CO4)CC1 [Example 109, (4S)-2-(1-Acetylpiperidin-4-yl)-7-(3,5-dimethylisoxazol-4-yl)-4-pyridin-2-yl-4,5-dihydroimidazo[1,5,4-de][1,4]benzoxazine] | < 1000 nM | – |
| < 1000 nM | CC(=O)N1CC=C(c2nc3ccc(-c4c(C)noc4C)c4c3n2[C@@H](c2ccccn2)CO4)CC1 [Example 110, (4S)-2-(1-acetyl-1,2,3,6-tetrahydropyridin-4-yl)-7-(3,5-dimethylisoxazol-4-yl)-4-pyridin-2-yl-4,5-dihydroimidazo[1,5,4-de][1,4]benzoxazine] | < 1000 nM | – |
| < 1000 nM | Cc1noc(C)c1-c1ccc2nc(NC(C)C)n3c2c1OCC3c1ccccc1 (centres unmarked) [Example 25, 7-(3,5-Dimethylisoxazol-4-yl)-N-isopropyl-4-phenyl-4,5-dihydroimidazo[1,5,4-de][1,4]benzoxazin-2-amine] | < 1000 nM | – |
| < 1000 nM | Cc1noc(C)c1-c1ccc2[nH]c(=O)n3c2c1OCC3c1nccs1 (centres unmarked) [Example 21, 7-(3,5-Dimethylisoxazol-4-yl)-4-(1,3-thiazol-2-yl)-4,5-dihydroimidazo[1,5,4-de][1,4]benzoxazin-2(1H)-one] | < 1000 nM | – |
| < 1000 nM | Cc1noc(C)c1-c1ccc2nc(C)n3c2c1OCC3c1ccccc1 (centres unmarked) [Example 9, 7-(3,5-Dimethylisoxazol-4-yl)-2-methyl-4-phenyl-4,5-dihydroimidazo[1,5,4-de][1,4]benzoxazine] | < 1000 nM | – |
| < 1000 nM | Cc1noc(C)c1-c1ccc2nc(NC(C)CO)n3c2c1OCC3c1ccccc1 (single isomer, unassigned) [Example 30, 2-{[7-(3,5-Dimethylisoxazol-4-yl)-4-phenyl-4,5-dihydroimidazo[1,5,4-de][1,4]benzoxazin-2-yl]amino}propan-1-ol] | < 1000 nM | – |
| < 1000 nM | CCNc1nc2ccc(-c3c(C)noc3C)c3c2n1C(c1ccccc1)CO3 (centres unmarked) [Example 27, 7-(3,5-Dimethylisoxazol-4-yl)-N-ethyl-4-phenyl-4,5-dihydroimidazo[1,5,4-de][1,4]benzoxazin-2-amine] | < 1000 nM | – |
| < 1000 nM | Cc1noc(C)c1-c1ccc2[nH]c(=O)n3c2c1OCC3c1ccccc1OCC(=O)NCCO (centres unmarked) [Example 50, 2-{2-[7-(3,5-Dimethylisoxazol-4-yl)-2-oxo-1,2,4,5-tetrahydroimidazo[1,5,4-de][1,4]benzoxazin-4-yl]phenoxy}-N-(2-hydroxyethyl)acetamide] | < 1000 nM | – |
| < 1000 nM | Cc1noc(C)c1-c1ccc2[nH]c(=O)n3c2c1OCC3c1cccnc1CN (centres unmarked) [Example 130, 4-[2-(Aminomethyl)pyridin-3-yl]-7-(3,5-dimethylisoxazol-4-yl)-4,5-dihydroimidazo[1,5,4-de][1,4]benzoxazin-2(1H)-one bis(trifluoroacetate)] | < 1000 nM | – |
| < 1000 nM | Cc1noc(C)c1-c1ccc2[nH]c(=O)n3c2c1OC(C)C3c1ccccc1 (centres unmarked) [Example 3, 7-(3,5-Dimethylisoxazol-4-yl)-5-methyl-4-phenyl-4,5-dihydroimidazo[1,5,4-de][1,4]benzoxazin-2(1H)-one] | < 1000 nM | – |
| < 1000 nM | Cc1noc(C)c1-c1ccc2[nH]c(=O)n3c2c1OCC3c1cccnc1 (centres unmarked) [Example 5, 7-(3,5-Dimethylisoxazol-4-yl)-4-pyridin-3-yl-4,5-dihydroimidazo[1,5,4-de][1,4]benzoxazin-2(1H)-one] | < 1000 nM | – |
| < 1000 nM | Cc1noc(C)c1-c1ccc2nc(N(C)C)n3c2c1OCC3c1ccccc1 (centres unmarked) [Example 28, 7-(3,5-Dimethylisoxazol-4-yl)-N,N-dimethyl-4-phenyl-4,5-dihydroimidazo[1,5,4-de][1,4]benzoxazin-2-amine] | < 1000 nM | – |
| < 1000 nM | Cc1noc(C)c1-c1cc(CNC(=O)NC(C)C)c2[nH]c(=O)n3c2c1OC[C@@H]3c1ccccn1 [Example 142, N-{[(4S)-7-(3,5-Dimethylisoxazol-4-yl)-2-oxo-4-pyridin-2-yl-1,2,4,5-tetrahydroimidazo[1,5,4-de][1,4]benzoxazin-9-yl]methyl}-N′-isopropylurea] | – | < 1000 nM |
| < 1000 nM | COc1ccccc1C1COc2c(-c3c(C)noc3C)ccc3[nH]c(=O)n1c23 (centres unmarked) [Example 7, 7-(3,5-Dimethylisoxazol-4-yl)-4-(2-methoxyphenyl)-4,5-dihydroimidazo[1,5,4-de][1,4]benzoxazin-2(1H)-one] | < 1000 nM | – |
| < 1000 nM | Cc1noc(C)c1-c1ccc2nc(C(N)=O)n3c2c1OC[C@@H]3c1ccccn1 [Example 96, (4S)-7-(3,5-Dimethylisoxazol-4-yl)-4-pyridin-2-yl-4,5-dihydroimidazo[1,5,4-de][1,4]benzoxazine-2-carboxamide] | < 1000 nM | – |
| < 1000 nM | Cc1noc(C)c1-c1ccc2[nH]c(=O)n3c2c1OCC3c1ccc(C#N)cc1 (centres unmarked) [Example 4, 4-[7-(3,5-Dimethylisoxazol-4-yl)-2-oxo-1,2,4,5-tetrahydroimidazo[1,5,4-de][1,4]benzoxazin-4-yl]benzonitrile] | < 1000 nM | – |
| < 1000 nM | CC(=O)NCc1cc(-c2c(C)noc2C)c2c3c1[nH]c(=O)n3[C@@H](c1ccccn1)CO2 [Example 138, N-{[(4S)-7-(3,5-Dimethylisoxazol-4-yl)-2-oxo-4-pyridin-2-yl-1,2,4,5-tetrahydroimidazo[1,5,4-de][1,4]benzoxazin-9-yl]methyl}acetamide trifluoroacetate] | < 1000 nM | – |
| < 1000 nM | CNC(=O)c1nc2ccc(-c3c(C)noc3C)c3c2n1[C@@H](c1ccccn1)CO3 [Example 95, (4S)-7-(3,5-Dimethylisoxazol-4-yl)-N-methyl-4-pyridin-2-yl-4,5-dihydroimidazo[1,5,4-de][1,4]benzoxazine-2-carboxamide] | < 1000 nM | – |
| < 1000 nM | Cc1noc(C)c1-c1ccc2c3c1OCC(c1ccccc1)n3c(=O)n2CCN1CCOCC1 (centres unmarked) [Example 10, 7-(3,5-Dimethylisoxazol-4-yl)-1-(2-morpholin-4-ylethyl)-4-phenyl-4,5-dihydroimidazo[1,5,4-de][1,4]benzoxazin-2(1H)-one] | – | < 1000 nM |

From patent publication US10464947B2 (Incyte Corporation, priority 2013, dated 2019)
